Measured values taken from patent US7759345B2, “Antitumoral derivatives of ET-743” (priority 2001, dated 2010).

What was measured:
Type in all cases: cell-based
A-549 = assay: Inhibition of cells growth by colorimetric assay (SRB), A-549
Method in brief: (§1)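 SRB read-out at 490 nm after 48 h drug exposure (10 to 10^−8 μg/ml) of cells plated at 5×10^3/well and attached 18 h in drug-free RPMI 1640/10% FBS. Triplicate means give GI, TGI (cytostatic) and LC (cytotoxic).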

HT-29 = assay: Inhibition of cells growth by colorimetric assay (SRB), HT-29
Method in brief: as §1

HMEC1 = assay: Inhibition of cells growth by colorimetric assay (SRB), HMEC1
Method: 2°.—Inhibition of Cells Growth by Colorimetric Assay.
A colorimetric type of assay, using sulforhodamine B (SRB) reaction has been adapted for a quantitative measurement of cell growth and viability [following the technique described by Philip Skehan, et al. (1990), New colorimetric cytotoxicity assay for anticancer drug screening, J. Natl. Cancer Inst., 82:1107-1112]
This form of the assay employs 96 well cell culture microplates of 9 mm diameter (Faircloth, 1988; Mosmann, 1983). Most of the cell lines are obtained from American Type Culture Collection (ATCC) derived from different human cancer types.
Cells are maintained in RPMI 1640 10% FBS, supplemented with 0.1 g/l penicillin and 0.1 g/l streptomycin sulfate and then incubated at 37° C., 5% CO2 and 98% humidity. For the experiments, cells were harvested from subconfluent cultures using trypsin and resuspended in fresh medium before plating.
Cells are seeded in 96 well microtiter plates, at 5×10^3 cells per well in aliquots of 195 μl medium, and they are allowed to attach to the plate surface by growing in drug free medium for 18 hours. Afterward, samples are added in aliquots of 5 μl in a ranging from 10 to 10^−8 μg/ml, dissolved in DMSO/EtOH/PBS (0.5:0.5:99). After 48 hours exposure, the antitumor effect are measured by the SRB methodology: cells are fixed by adding 50 μl of cold 50% (wt/vol) trichloroacetic acid (TCA) and incubating for 60 minutes at 4° C. Plates are washed with deionized water and dried. One hundred μl of SRB solution (0.4% wt/vol in 1% acetic acid) is added to each microtiter well and incubated for 10 minutes at room temperature. Unbound SRB is removed by washing with 1% acetic acid. Plates are air dried and bound stain is solubilized with Tris buffer. Optical densities are read on a automated spectrophotometric plate reader at a single wavelength of 490 nm.
The values for mean+/−SD of data from triplicate wells are calculated. Some parameters for cellular responses can be calculated: GI=growth inhibition, TGI=total growth inhibition (cytostatic effect) and LC=cell killing (cytotoxic effect).
Obtained results may predict the usefulness of a certain drug as a potential cancer treatment. For this technique, compounds which show GI50 values smaller than 10 μg/ml are selected to continue with further studies. GI50's data allow to predict that not only could a drug be cystostatic, but also it could have a potential in terms of tumor reduction.

## COc1cc2c(cc1OC(=O)OC(C)(C)C)CCN[C@]21CS[C@@H]2c3c(OC(C)=O)c(C)c4c(c3[C@H](COC1=O)N1C2[C@H]2c3c(cc(C)c(OC)c3OC(C)C)C[C@@H]([C@@H]1C#N)N2C)OCO4 (stereo partly drawn) [Compound 46]
A-549; A-549, SRB, 48 hours exposure
  TGI A-549: 4.06E-07
A-549; Homo sapiens, A549, 48 h, read-out: GI50 A-549
  GI50: 179 nM
A-549; Homo sapiens, A549, 48 h, read-out: LC50 A-549, A-549, SRB, 48 hours exposure
  LC50 (concentration for 50% cell killing): 927 nM
HT-29; HT-29, SRB, 48 hours exposure
  TGI HT-29: 1.95E-06
HT-29; Homo sapiens, HT-29, 48 h, read-out: GI50 HT-29
  GI50: 398 nM
HT-29; Homo sapiens, HT-29, 48 h, read-out: LC50 HT-29, HT-29, SRB, 48 hours exposure
  LC50 (concentration for 50% cell killing): 11000 nM
HMEC1; HMEC-1, SRB, 48 hours exposure
  TGI HMEC-1: 5.18E-07
HMEC1; Homo sapiens, HMEC-1, 48 h, read-out: GI50 HMEC-1
  GI50: 152 nM
HMEC1; Homo sapiens, HMEC-1, 48 h, read-out: LC50 HMEC-1, HMEC-1, SRB, 48 hours exposure
  LC50: 11000 nM
